Where two headings read alike, the source gives them in different places.
Columns and labels:
human recombinant CK2α1 = target: T1, human recombinant CK2α1 (Homo sapiens, UniProt P68400); assay: CK2 ADP-Glo kinase assay; format: biochemical; settings: for Effect on CK2 activity in initial screening (in words): initial screening at 50 μM; for inhibition at 50 µM: read-out: CK2 Inhibition at 50 μM, m ± SD (%)
T1 construct: purchased Promega V4482
Experimental: Kinase activity was determined using the enzyme system CK2α1 (Promega V4482, Madison, WI, USA) and the ADP-Glo^TM kit (Promega V9101, Madison, WI, USA) in white 96-well plates (Nunc U96 Microwell 267350, Denmark). The reaction was carried out using 50 ng/well of N-GST labeled human recombinant CK2α1, 0.1 µg/µL bovine casein as a substrate, 10 μM ATP in 40 mM Tris buffer solution (pH 7.50) containing 20 mM MgCl2, 0.1 mg/mL of BSA, and 50 μM of DTT. Test compounds were added to 1.25% DMSO (final concentration 0.25%) and preincubated with kinase for 10 min. The reaction was carried out for 60 min at 25 °C in a thermostatically controlled PST-60HL shaker (Biosan. […], Latvia). ATP-dependent luminescence was measured at an integration time of 1000 ms using the Infinite M200 PRO microplate reader (Tecan. Austria). The ATP-competitive inhibitor Staurosporin (CAS 62996–74-1, Alfa Aesar J62837, 99+%) was used as a positive control. The experiments were performed in two parallels.

A-172 cells = assay: MTT test, glioblastoma cells; format: cell-based, human; settings: for Cytotoxicity index IC50 ± SE, A-172: MTT, 72 h incubation; for Selectivity ratio SR (A-172): normal/cancer cell (Hek-293 vs A-172)
Experimental: (§1) The studies were carried out on cultured cells of human glioblastoma (A-172, ATCC CRL 1620), human osteosarcoma (Hos, ATCC CRL 1543), human embryonic rhabdomyosarcoma (Rd, ATCC CRL 136), and human embryonic kidney 293 cells (Hek-293, ATCC CRL 1573) obtained from the Shared research facility “Vertebrate cell culture collection” (Institute of Cytology RAS, Saint-Petersburg, Russia). The cells were cultured using DMEM / F-12 medium containing 10% fetal bovine serum at 37°C, 5% CO2, and 98% humidity. Subculturing was performed using 0.25% trypsin solution when the culture reached ≥90% confluency.
(§2) The compounds were dissolved in DMSO. The solutions were diluted with DMEM/F-12 culture medium with 10% fetal bovine serum to the studied concentrations: 8, 16, 32, 64, 128, 256, 512, and 1024 µM. […] Cisplatin (cPt) was used as a positive control.
(§3) Cells were seeded in 96-well plates at a concentration of 4 × 10^3 cells per well. After 24 h, test compounds were added to the wells in a given concentration range. Then the cells were incubated for 72 h, after which a solution of MTT (3-(4,5-dimethyl-2-thiazolyl)-2,5-diphenyl-2H-tetrazolium bromide) was added to the cultures at 20 µL (5 mg/mL) to the well. After 2.5 h, the medium was removed from the wells and 200 µL of a mixture of DMSO/i-PrOH 1/1 was added. Optical density was measured on a plate spectrophotometer at a wavelength of 570 nm.
(§4) Statistical data processing was carried out in the RStudio program (Version 1.4.1106 © […] RStudio, PBC, Boston, MA, USA) using the R package (version 4.1.2). The cytotoxicity index (IC50) was calculated by plotting dose–response curves using the “drc” package.

Rd cells = assay: MTT test, embryonic rhabdomyosarcoma cells; format: cell-based, human; settings: for Cytotoxicity index IC50 ± SE, Rd: MTT, 72 h incubation; for Selectivity ratio SR (RD): normal/cancer cell (Hek-293 vs Rd)
Experimental: as §1, §2, §3, §4

Hos cells = assay: MTT test, osteosarcoma cells; format: cell-based, human; settings: for Cytotoxicity index IC50 ± SE, Hos: MTT, 72 h incubation; for Selectivity ratio SR (HOS): normal/cancer cell (Hek-293 vs Hos)
Experimental: as §1, §2, §3, §4

Hek-293 cells = assay: MTT test, human embryonic kidney cells; format: cell-based; settings: 72 h incubation
Experimental: as §1, §2, §3, §4

[1] = dose-response study of CK2 inhibition
[2] = 50 μM compound, 10 μM ATP, n.a. = not active
[3] = dose-response study, 10 μM ATP, read-out: CK2 IC50

T1 sequence (P68400 whole entry): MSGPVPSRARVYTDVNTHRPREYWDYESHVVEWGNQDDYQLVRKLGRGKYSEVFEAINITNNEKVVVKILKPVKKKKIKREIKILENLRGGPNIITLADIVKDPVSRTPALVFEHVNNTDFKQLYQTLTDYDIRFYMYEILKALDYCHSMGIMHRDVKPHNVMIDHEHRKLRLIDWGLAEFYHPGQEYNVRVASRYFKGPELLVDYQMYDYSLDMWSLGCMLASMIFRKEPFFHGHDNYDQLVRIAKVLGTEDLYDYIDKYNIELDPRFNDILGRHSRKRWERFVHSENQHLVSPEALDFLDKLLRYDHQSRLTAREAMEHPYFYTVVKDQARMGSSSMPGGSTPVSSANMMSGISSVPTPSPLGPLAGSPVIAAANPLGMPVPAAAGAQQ

Effect on CK2 activity in initial screening (in words) (human recombinant CK2α1) | IC50 (human recombinant CK2α1; [3]) | Compound | Cytotoxicity index IC50 ± SE, A-172 (A-172 cells) | Selectivity ratio SR (A-172) (A-172 cells) | Cytotoxicity index IC50 ± SE, Rd (Rd cells) | Selectivity ratio SR (RD) (Rd cells) | Cytotoxicity index IC50 ± SE, Hos (Hos cells) | Selectivity ratio SR (HOS) (Hos cells) | Cytotoxicity index IC50 ± SE, Hek-293 (Hek-293 cells) | IC50 (human recombinant CK2α1) | CK2 inhibitory potency in dose-response study (in words) (human recombinant CK2α1; dose-response study) | Hill Coefficient (human recombinant CK2α1; [1]) | inhibition at 50 µM (human recombinant CK2α1) | inhibition at 50 µM (human recombinant CK2α1; [2]) | Hill Coefficient (human recombinant CK2α1)
paradoxically enhance CK2 activity | – | 3-Cyano-2-methylthio-6-nitro-7-(4ʹ-nitrophenyl)-4,7-dihydropyrazolo[1,5-a]pyrimidine [Compound 5o] | 22.49 ± 2.93 µM | 7.5 | 36.33 ± 3.40 µM | 4.7 | 28.09 ± 3.91 µM | 6 | – | – | – | – | – | – | –
– | – | CC1=C([N+](=O)[O-])C(c2cccs2)n2nccc2N1 (stereo not drawn) [Compound 5d, 6-Nitro-5-methyl-7-(thiophen-2ʹ-yl)-4,7-dihydropyrazolo[1,5-a]pyrimidine] | 28.91 ± 4.58 µM | – | 105.54 ± 16.81 µM | – | 103.53 ± 18.27 µM | – | 543.74 ± 70.79 µM | – | – | – | – | – | –
– | – | CCOC(=O)c1cnn2c1NC(CC)=C([N+](=O)[O-])C2c1ccccc1 (stereo not drawn) [Compound 5e, 3-Etoxycarbonyl-5-ethyl-6-nitro-7-phenyl-4,7-dihydropyrazolo[1,5-a]pyrimidine] | 256.72 ± 12.20 µM | – | 99.46 ± 4.43 µM | – | 126.60 ± 7.17 µM | – | 222.84 ± 6.33 µM | – | – | – | – | – | –
paradoxically enhance CK2 activity | – | N#Cc1cnn2c1NC=C([N+](=O)[O-])C2c1ccccc1 (stereo not drawn) [Compound 5g, 3-Cyano-6-nitro-7-phenyl-4,7-dihydropyrazolo[1,5-a]pyrimidine] | 171.74 ± 8.63 µM | – | 149.72 ± 11.01 µM | – | 181.14 ± 7.47 µM | – | 483.09 ± 37.61 µM | – | – | – | – | – | –
Moderate inhibition | 52.3 µM | CCC1=C([N+](=O)[O-])C(c2cccs2)n2ncc(C#N)c2N1 (stereo not drawn) [Compound 5k, 3-Cyano-5-ethyl-6-nitro-7-(thiophen-2-yl)-4,7-dihydropyrazolo[1,5-a]pyrimidine] | 110.23 ± 2.97 µM | – | 89.43 ± 10.46 µM | – | 77.32 ± 3.06 µM | – | 107.57 ± 11.10 µM | – | micromolar CK2 inhibitors | −1.183 | – | 66.8 ± 7.97% | –
Moderate inhibition | 57.2 µM | CSc1nn2c(c1C#N)NC=C([N+](=O)[O-])C2c1ccccc1 (stereo not drawn) [Compound 5l, 3-Cyano-2-methylthio-6-nitro-7-phenyl-4,7-dihydropyrazolo[1,5-a]pyrimidine] | 77.79 ± 4.02 µM | – | 124.66 ± 6.80 µM | – | 92.91 ± 3.91 µM | – | 162.30 ± 9.95 µM | – | micromolar CK2 inhibitors | −2.947 | – | 48.4 ± 4.48% | –
paradoxically enhance CK2 activity | – | CSc1nn2c(c1C#N)NC(C)=C([N+](=O)[O-])C2c1ccccc1 (stereo not drawn) [Compound 5m, 3-Cyano-5-methyl-2-methylthio-6-nitro-7-phenyl-4,7-dihydropyrazolo[1,5-a]pyrimidine] | 13.36 ± 0.98 µM | 15.8 | 27.52 ± 2.77 µM | 7.7 | 18.54 ± 1.79 µM | 11.4 | – | – | – | – | – | – | –
– | – | CCC1=C([N+](=O)[O-])C(c2ccc([N+](=O)[O-])cc2)n2nc(SC)c(C#N)c2N1 (stereo not drawn) [Compound 5n, 5-Ehtyl-3-cyano-2-methylthio-6-nitro-7-(4ʹ-nitrophenyl)-4,7-dihydropyrazolo[1,5-a]pyrimidine] | 119.75 ± 8.49 µM | – | 151.44 ± 7.28 µM | – | 112.26 ± 8.19 µM | – | 78.70 ± 9.75 µM | – | – | – | – | 19.8 ± 24.5% | –
– | – | CSc1nc2n(n1)C(c1ccccc1)C([N+](=O)[O-])=C(C)N2 (stereo not drawn) [Compound 6b, 5-Methyl-2-methylthio-6-nitro-7-phenyl-4,7-dihydro-1,2,4-triazolo[1,5-a]pyrimidine] | 71.03 ± 2.07 µM | – | 110.11 ± 4.93 µM | – | 92.03 ± 3.08 µM | – | 237.40 ± 11.99 µM | – | – | – | – | – | –
– | – | CN[C@@H]1C[C@H]2O[C@@](C)([C@@H]1OC)n1c3ccccc3c3c4c(c5c6ccccc6n2c5c31)C(=O)NC4 [Staurosporine, reference compound] | – | – | – | – | – | – | – | – | – | – | 72.3 ± 6.39% | – | −0.974
– | – | N.N.[Cl][Pt][Cl] [cPt, Cisplatin, reference compound] | 3.64 ± 0.21 µM | 1.2 | 4.99 ± 0.31 µM | 0.9 | 2.36 ± 0.12 µM | 1.9 | 4.41 ± 0.24 µM | – | – | – | – | – | –

Compound | Effect on CK2 activity in initial screening (in words) (human recombinant CK2α1) | IC50 (human recombinant CK2α1; [3]) | Cytotoxicity index IC50 ± SE, A-172 (A-172 cells) | Selectivity ratio SR (A-172) (A-172 cells) | Cytotoxicity index IC50 ± SE, Rd (Rd cells) | Selectivity ratio SR (RD) (Rd cells) | Cytotoxicity index IC50 ± SE, Hos (Hos cells) | Selectivity ratio SR (HOS) (Hos cells) | Cytotoxicity index IC50 ± SE, Hek-293 (Hek-293 cells) | IC50 (human recombinant CK2α1) | CK2 inhibitory potency in dose-response study (in words) (human recombinant CK2α1; dose-response study) | Hill Coefficient (human recombinant CK2α1; [1]) | inhibition at 50 µM (human recombinant CK2α1) | inhibition at 50 µM (human recombinant CK2α1; [2]) | Hill Coefficient (human recombinant CK2α1)
5-Methyl-2-methylthio-6-nitro-7-(4ʹ-nitrophenyl)-4,7-dihydro-1,2,4-triazolo[1,5-a]pyrimidine [Compound 6c] | paradoxically enhance CK2 activity | – | 41.27 ± 4.10 µM | 5.5 | 71.15 ± 6.84 µM | 3.2 | 40.88 ± 4.11 µM | 5.6 | – | – | – | – | – | – | –
CCOC(=O)c1cnn2c1NC(CC)=C([N+](=O)[O-])C2c1ccc([N+](=O)[O-])cc1 (stereo not drawn) [Compound 5f, 3-Etoxycarbonyl-5-ethyl-6-nitro-7-(4ʹ-nitrophenyl)-4,7-dihydropyrazolo[1,5-a]pyrimidine] | Moderate inhibition | – | 212.36 ± 42.85 µM | – | 121.97 ± 13.53 µM | – | 170.14 ± 11.16 µM | – | 35.86 ± 4.30 µM | 52.8 µM | micromolar CK2 inhibitors | −1.369 | 53.81 ± 0.42% | – | –
CCC1=C([N+](=O)[O-])C(c2ccc([N+](=O)[O-])cc2)n2ncc(C#N)c2N1 (stereo not drawn) [Compound 5h, 3-Cyano-5-ehtyl-6-Nitro-7-(4ʹ-nitrophenyl)-4,7-dihydropyrazolo[1,5-a]pyrimidine] | Moderate inhibition | – | 323.41 ± 22.70 µM | – | 378.59 ± 20.39 µM | – | 234.97 ± 25.80 µM | – | 153.47 ± 12.35 µM | 59.5 µM | micromolar CK2 inhibitors | −1.566 | 54.8 ± 0.87% | – | –
CCC1=C([N+](=O)[O-])C(c2ccc([N+](=O)[O-])cc2)n2nc(C(F)(F)F)nc2N1 (stereo not drawn) [Compound 6e] | Moderate inhibition | > 100 µM | 82.44 ± 2.22 µM | – | 192.69 ± 10.27 µM | – | 93.72 ± 5.89 µM | – | 54.16 ± 5.32 µM | – | low potency | – | – | 39.8 ± 19.5% | –

Reference: article PMC9415015, “CK2 Inhibition and Antitumor Activity of 4,7-Dihydro-6-nitroazolo[1,5-a]pyrimidines” (Molecules, 2022)
